The record followed here is US4457919A, “Method of imparting immunomodulating, antiviral or antitumor activity” (Newport Pharmaceutical International, Inc., priority 1982, dated 1984).

One series relates to HPBL (active E-rosettes). The series is described as follows: Enhancement of active E-rosette formation in HPBL (in vitro). The following applies: for Immunomodulating (in vitro) Rosette, change: Table 11 summary; for Immunomodulating (in vitro) rosette formation (in words): active rosettes, HPBL. Format: cell-based, human. The method, then:
3. Enhancement of active rosette formation (in vitro).
3. As can be noted from Table 7, both NPT 15457 and NPT 15458 are effective in modulating active rosette formation in HPBL. […] In Experiment #2, placebo-treated controls have abnormally high values for active rosettes.
1. Ten to 40 ml of whole blood is drawn from healthy volunteers in heparinized tubes.
2. Lymphocytes are separated from the above blood using Ficoll-hypaque separation techniques.
3. Various concentration of test compound are prepared in RPMI-1640.
4. The concentration of lymphocytes are adjusted to 2×10^6 /ml of RPMI-1640.
5. Lymphocytes are incubated with test compound for 90 minutes at 37° C.
6. Sheep Red Blood Cells (SRBC.s) (one to two weeks old) are washed 3 times with PBS and diluted to a final concentration of 0.5% inj RPMI-1640.
7. Reaction tubes are set up containing the following:
8. The above reactants are centrifuged at 200×g for 5 minutes at room temperature.
9. The sediment is then gently resuspended and a […] sample placed in a hemocytometer.
10. The number of rosettes are then counted using a microscope with any lymphocyte having 3 or more attached red cells being counted as a rosette.

The test system of a further series is HPBL. As to the kind of experiment: Formation of NPT 15392 on incubation with human peripheral blood lymphocytes (HPLC). The format is in vitro ADME. The following applies: HPBL, 0 hrs. An excerpt: (§1) | ^a Determined using HPLC
Assay in series [1]: as above
Format: in vitro ADME. Particulars: human, peripheral blood lymphocytes.
From the text: as §1

A short description of series [2]: Formation of NPT 15392 on incubation with liver homogenate (HPLC). Format: in vitro ADME. The following applies: for % of NPT 15392: 0 hrs.
From the text: as §1

For series [3], the system named is IgM antibody production to sheep red blood cells. The series is described as follows: IgM antibody formation in SRBC-immunized Balb/c mice (immunoplaque assay, in vivo). Particulars: for Immunomodulating (in vivo) IgM formation (in words): SRBC immunized mice. The protocol: 4. Enhancement of IgM antibody formation in mice immunized with sheep red blood cells (SRBC) (in vivo).
4. NPT 15457 and NPT 15458 and the "active" drug, NPT 15392, were given to Balb/c mice who had been immunized with sheep red blood cells SRBC. Antibody production to SRBC was measured. […] NPT 15392, at the levels studied, produce a 46% increase in IgM production. Higher doses of NPT 15392 will cause less of an increase or decrease over control values. […] This is to be expected since NPT 15458 produces very high levels of NPT 15392 which are most likely inhibitory to IgM formation.
1. Mice are immunized as follows: sheep blood (sheep #23) is received weekly from Hyland Labs. It is aseptically collected in two volumes of Alseviers to one volume of blood.
2. Five-tenths ml of the sheep blood in Alseviers is washed three times in sterile PBS in an IEC clinical centrifuge, setting #4 (2800 rpm) for 10 min. at room temperature.
3. The pellet is resuspended in 1:10 in sterile PBS.
4. A model Z Coulter counter is calibrated according to Coulter Instruction Manual.
5. A […] dilution is needed for a Coulter counter cell count and is obtained by first making a 1:100 dilution in PBS and then diluting this solution 1:10 in isoton. The Coulter counter threshold is adjusted to setting #5.
6. The cell count is determined and the stock solution is diluted to 4×10^7 cells/ml. This final suspension is used for immunization.
7. Each mouse is immunized by i.v. injection into the lateral tail vein (warmed in a 50° C. water bath for veinous dilation) with 0.1 ml SRBC suspension; the final concentration of SRBC's is 4×10^6 per mouse.
1. Mice are treated by i.p. injection on days 0, 1, 2 and 3. A syringe (1 cc) is fitted with a one-half inch, 26 gauge needle. The needle is introduced at a 45° angle along the right side of the linea alba. A 0.2 ml volume is given to both drug and control treated groups.
2. Drug groups are given 0.2 ml of a desired concentration NPT 15392 solution which, for a 20 g mouse, is 5 μg/ml.
1. Spleens are removed aseptically and placed individually in Falcon #2025 tissue culture tubes containing 3 ml MEM. The tubes are then stored on ice.
2. Spleens are homogenized in the same tube with a teflon pestle attached to a G. K. Heller variable speed reversible motor connected with a G. K. Heller GT-21 motor controller setting #6.
3. The homogenization time and action should be uniform from sample to sample.
4. Samples are then filtered through a 100 mesh 40 micron stainless screen into a standard tissue culture tube. The screen is rinsed with 3 ml MEM and the cell suspension is stored on ice.
5. A 1:1000 dilution is made for a Coulter counter cell count and is obtained by first making a 1:100 dilution in PBS followed by a 1:10 dilution in isoton.
6. The cell count is obtained and the stock suspension is diluted to 1×10^7 cells/ml. The Coulter counter threshold is set at 10. Red cells are lysed with three drops of Zap isoton.
Agar plates are removed from regrigerator and allowed to warm to room temperature. They are labeled in triplicate for each experimental group.
2. Agar-filled tubes are removed from the water bath. One-tenth of the 10% SRBC's and 0.1 ml spleen cell suspension are added to each agar tube. The tubes are agitated on a Vortex mixer.
3. The contents of the tubes are poured immediately into agar base plates and swirled until a smooth layer is formed. The plates are placed on a level surface until the agar solidifies.
4. The plates are incubated at 37° C. in a humidified atmosphere of 5% CO2 and 95% air for 90 min.
5. Guinea pig complement (see preparation, section D) is removed from freezer, thawed at room temperature and diluted 1:10 in PBS.
6. Plates are removed from incubator and 1 ml of the diluted complement is added to each plate.
7. Plates are then incubated another 30-45 minutes at 37° C. Plates are then removed from incubator and counted using oblique light.
8. […]

Another series deals with Vero Cells. The series is described as follows: Formation of NPT 15392 on incubation with Vero cells (HPLC). Format: in vitro ADME, African Green Monkey. The following applies: 0 hrs.
From the text: as §1

Assay in series [4]: as above
The following applies: monkey, 24 hrs. The format is in vitro ADME, African Green Monkey.
From the text: as §1

Series [5] in a line: Chemical stability at varying pH, conversion to NPT 15392 (HPLC). Particulars: for degraded at 3.5 h, 360 µM: 3.5 hours incubation at 37° C., 0.36 μm/ml; for Chemical stability (in words): 37° C., neutral pH. The format is physicochemical. The protocol:
Compound (conc.) % of NPT 15392*
*3.5 hours incubation at 37° C., determined using HPLC

Where [6] appears, read: Experiment #1, 3.6 n moles/ml, placebo 9.23 ± 2.9, NPT 15457 and NPT 15458 p ≤ 0.05 versus placebo.
[7] abbreviates: Experiment #2, 0.36 n moles/ml, placebo 34.2 ± 6.6, NPT 15392 and NPT 15458 p ≤ 0.05 versus placebo.
The mark [8] stands for this setting: HPBL, 24 hrs., read-out: % of NPT 15392.
Where [9] appears, read: Expt 1, 1.8 n moles/kg × 4 i.p., all p ≤ 0.01 vs placebo.
Where [10] appears, read: Expt 1, 1.8 n moles/kg × 4 i.p., control 28 ± 2.
Setting [11] is: Expt 2, .18 n moles/kg × 4 i.p., NPT 15392 and NPT 15458 p ≤ 0.01 vs placebo.
The mark [12] stands for this setting: Expt 2, .18 n moles/kg × 4 i.p., control 46 ± 2.
Where [13] appears, read: Table 11 summary, read-out: Convertible to NPT 15392, Biological: HPBL.

Entries after “also recorded” stand apart in the source; their conditions may differ.

As for `CCCCCC[C@H]([C@H](C)O)n1cnc2c(=O)[nH]cnc21` (relative stereo) [NPT 15392, erythro-9-(2-hydroxy-3-nonyl)-hypoxanthine, reference compound], the “% Active E-Rosettes (mean ± S.E.)” value stood at 16.2 ± 1.0% with HPBL (active E-rosettes) (setting [6]) and 15.4 ± 2.9% in the series with HPBL (active E-rosettes) (setting [7]). In the series on HPBL (active E-rosettes), the “Immunomodulating (in vitro) Rosette, change” value is “+78%”. Besides, in the series with HPBL (active E-rosettes), the “Immunomodulating (in vitro) rosette formation (in words)” value was “able to decrease the high levels of normal values and Yes”. For the same molecule, the “% of NPT 15392” value (in the series on HPBL; in series [2]; in the series with Vero Cells) was 100% throughout. Further, the metabolised at 24 h in series [1] (setting [8]) and in series [4] was 100% throughout. This molecule also returned a metabolised at 0.5 h in series [2] of 100%. For the same molecule, the results for the “# IgM Plaques % of Control” value in series [3] (setting [9]) and in series [3] (setting [11]) were 146% and 147%, respectively. Also, the “# IgM Plaques (mean ± S.E.)” value in series [3] (setting [10]) is recorded as 41 ± 4; in series [3] (setting [12]), 68 ± 2. In addition, the “Immunomodulating (in vivo) IgM formation (in words)” value in series [3] is “very effective in modulating the production of IgM antibodies and Yes”. Besides, the “Immunomodulating (in vivo) SRPC-IgM, change” value in series [3] (Table 11 summary) is given as “+46%”. Moreover, in series [3] (at the levels studied), the “Increase in IgM production” value came to 46%. The degraded at 3.5 h, 360 µM in series [5] (pH 1.0), in series [5] (pH 7.0) and in series [5] (pH 9.5) was 100% each time.
On to `CCCCCC[C@H]([C@H](C)OC(=O)CCC(=O)O)n1cnc2c(=O)[nH]cnc21` (relative stereo) [NPT 15457, Erythro-9-(2-Succinoxy-3-Nonyl) Hypoxanthine], for which the “% Active E-Rosettes (mean ± S.E.)” value in the series on HPBL (active E-rosettes) (setting [6]) worked out at 24.8 ± 6%; in the series with HPBL (active E-rosettes) (setting [7]), 33.6 ± 2.4%. Further, the “Immunomodulating (in vitro) Rosette, change” value with HPBL (active E-rosettes) is reported as “+166%”. Besides, in the series on HPBL (active E-rosettes), the “Immunomodulating (in vitro) rosette formation (in words)” value was “as active as NPT 15392 in restoring the depressed immunity to normal levels and Yes”. The “% of NPT 15392” value (in the series on HPBL; in series [2]; in the series on Vero Cells) was 0% each time. The metabolised at 24 h in series [1] (setting [8]) worked out at 18.2%; in series [1] (setting [13]), 18%; in series [4], 0%. The molecule also displayed a metabolised at 0.5 h in series [2] of 14%. In addition, the “# IgM Plaques % of Control” value in series [3] (setting [9]) is 68%; in series [3] (setting [11]) it was 102%. Moreover, the “# IgM Plaques (mean ± S.E.)” value worked out at 19 ± 3 in series [3] (setting [10]) and 47 ± 3 in series [3] (setting [12]). Besides, the “Immunomodulating (in vivo) IgM formation (in words)” value in series [3] is on record as “less than that of NPT 15458; also recorded: Moderate”. Further, the “Immunomodulating (in vivo) SRPC-IgM, range” value in series [3] (Table 11 summary, unit not given) is listed as 0-60. In addition, the “Chemical stability (in words)” value in series [5] is on record as “have stability”. For the same molecule, the values for the degraded at 3.5 h, 360 µM in series [5] (pH 1.0), in series [5] (pH 7.0) and in series [5] (pH 9.5) were 2%, 0% and 8%, respectively. The “Chemical conversion to NPT 15392 (in words)” value in series [5] (pH 7.0) was “No”; in series [5] (pH 9.5) it was “basic hydrolysis at pH 9.5 can convert and Yes”.
In the case of `CCCCCC[C@H]([C@H](C)OC(C)=O)n1cnc2c(=O)[nH]cnc21` (relative stereo) [NPT 15458, erythro-9-(2-Acetoxy-3-Nonyl)-Hypoxanthine], the “% Active E-Rosettes (mean ± S.E.)” value in the series on HPBL (active E-rosettes) (setting [6]) came out at 19.4 ± 1.0%; with HPBL (active E-rosettes) (setting [7]), 23.25 ± 1.24%. Besides, the “Immunomodulating (in vitro) Rosette, change” value in the series on HPBL (active E-rosettes) is recorded as “+11%”. For the same molecule, the “Immunomodulating (in vitro) rosette formation (in words)” value with HPBL (active E-rosettes) was “as active as NPT 15392 in restoring the depressed immunity to normal levels and able to decrease the high levels of normal values and Yes”. For the same molecule, the “% of NPT 15392” value (in the series on HPBL; in series [2]; in the series on Vero Cells) was 0% in each case. The metabolised at 24 h in series [1] (setting [8]) amounted to 100%; in series [1] (setting [13]), 100%; in series [4] it was 50%. This molecule also registered a metabolised at 0.5 h in series [2] of 70%. In addition, the results for the “# IgM Plaques % of Control” value in series [3] (setting [9]) and in series [3] (setting [11]) were 28.5% and 23.9%, respectively. The “# IgM Plaques (mean ± S.E.)” value in series [3] (setting [10]) was determined as 8 ± 1; in series [3] (setting [12]), 11 ± 1. Besides, in series [3], the “Immunomodulating (in vivo) IgM formation (in words)” value is “produces an inhibition of IgM formation and very effective in modulating the production of IgM antibodies and Yes”. In series [3] (Table 11 summary), the “Immunomodulating (in vivo) SRPC-IgM, change” value is given as -72%. Further, the “Chemical stability (in words)” value in series [5] was “have stability”. Besides, the results for the degraded at 3.5 h, 360 µM in series [5] (pH 1.0), in series [5] (pH 7.0) and in series [5] (pH 9.5) were 8%, 0% and 28%, respectively. Further, the “Chemical conversion to NPT 15392 (in words)” value in series [5] (pH 7.0) is “No”; in series [5] (pH 9.5), “basic hydrolysis at pH 9.5 can convert and Yes”.
